Measured values from patent US8877748B2, “Heterocyclic fused anthraquinone derivatives, manufacturing method and pharmaceutical composition using thereof” (National Defense Medical Center, priority 2012, dated 2014).

Columns and labels:
[1] = system: UACC-257; assay: NCI one-dose screening, melanoma UACC-257; type: cell-based, human; settings: 10 μM
[2] = system: M14; assay: NCI one-dose screening, melanoma M14; type: cell-based, human; settings: 10 μM
[3] = system: T-47D; assay: NCI one-dose screening, breast cancer T-47D; type: cell-based, human; settings: 10 μM
[4] = system: HOP-62; assay: NCI one-dose screening, non-small cell lung cancer HOP-62; type: cell-based, human; settings: 10 μM
[5] = system: COLO 205; assay: NCI one-dose screening, colon cancer COLO 205; type: cell-based, human; settings: 10 μM
[6] = system: NCI-H460; assay: NCI one-dose screening, non-small cell lung cancer NCI-H460; type: cell-based, human; settings: 10 μM
[7] = system: human tumor cell lines; assay: NCI one-dose screening, Mean / Delta / Range of growth percent over all tested cell lines; type: cell-based; settings: 10 μM
[8] = system: NCI-H226; assay: NCI one-dose screening, non-small cell lung cancer NCI-H226; type: cell-based, human; settings: 10 μM
[9] = system: K562cell line; assay: NCI one-dose screening, leukemia K562; type: cell-based, human; settings: 10 μM
[10] = system: SR; assay: NCI one-dose screening, leukemia SR; type: cell-based, human; settings: 10 μM
[11] = system: HCC-2998; assay: NCI one-dose screening, colon cancer HCC-2998; type: cell-based, human; settings: 10 μM
[12] = system: SNB-19; assay: NCI one-dose screening, CNS cancer SNB-19; type: cell-based, human; settings: 10 μM
[13] = system: PC-3 prostate cancer cell line; assay: SRB assay cell viability, PC-3 prostate cancer cell line; type: cell-based, human; settings: PC-3 prostate cancer cell line, Table II prints no unit, μM printed, read-out: SRB assay: 50% inhibition of cancer cell proliferation of sample concentration (IC50) of PC-3 prostate cancer cell line
[14] = system: SK-OV-3; assay: NCI one-dose screening, ovarian cancer SK-OV-3; type: cell-based, human; settings: 10 μM
[15] = system: SF-295; assay: NCI one-dose screening, CNS cancer SF-295; type: cell-based, human; settings: 10 μM
[16] = system: HCT-15; assay: NCI one-dose screening, colon cancer HCT-15; type: cell-based, human; settings: 10 μM
[17] = system: MDA-MB-231/ATCC; assay: NCI one-dose screening, breast cancer MDA-MB-231/ATCC; type: cell-based, human; settings: 10 μM
[18] = system: UACC-62; assay: NCI one-dose screening, melanoma UACC-62; type: cell-based, human; settings: 10 μM
[19] = system: A549/ATCC; assay: NCI one-dose screening, non-small cell lung cancer A549/ATCC; type: cell-based, human; settings: 10 μM
[20] = NCI one-dose screening, renal cancer A489; type: cell-based, human; settings: 10 μM
[21] = system: MDA, -MB-435; assay: NCI one-dose screening, breast cancer MDA, -MB-435; type: cell-based, human; settings: 10 μM; listed under Melanoma
[22] = system: LOX IMVI; assay: NCI one-dose screening, melanoma LOX IMVI; type: cell-based, human; settings: 10 μM
[23] = system: SK-MEL-5; assay: NCI one-dose screening, melanoma SK-MEL-5; type: cell-based, human; settings: 10 μM
[24] = system: NCl/ADR-RES; assay: NCI one-dose screening, breast cancer NCl/ADR-RES; type: cell-based, human; settings: 10 μM; listed under Ovarian cancer
[25] = system: MALME-3M; assay: NCI one-dose screening, melanoma MALME-3M; type: cell-based, human; settings: 10 μM
[26] = system: SK-MEL-2; assay: NCI one-dose screening, melanoma SK-MEL-2; type: cell-based, human; settings: 10 μM
[27] = system: PC-3; assay: NCI one-dose screening, prostate cancer PC-3; type: cell-based, human; settings: 10 μM
[28] = system: UO-31; assay: NCI one-dose screening, renal cancer UO-31; type: cell-based, human; settings: 10 μM
[29] = system: BT-549; assay: NCI one-dose screening, breast cancer BT-549; type: cell-based, human; settings: 10 μM
[30] = system: KM12; assay: NCI one-dose screening, colon cancer KM12; type: cell-based, human; settings: 10 μM
[31] = system: HL-60, TB; assay: NCI one-dose screening, leukemia HL-60, TB; type: cell-based, human; settings: 10 μM
[32] = system: 786-O; assay: NCI one-dose screening, renal cancer 786-O; type: cell-based, human; settings: 10 μM
[33] = system: OVCAR-3; assay: NCI one-dose screening, ovarian cancer OVCAR-3; type: cell-based, human; settings: 10 μM
[34] = system: SNB-75; assay: NCI one-dose screening, CNS cancer SNB-75; type: cell-based, human; settings: 10 μM
[35] = system: MDA-MB-468; assay: NCI one-dose screening, breast cancer MDA-MB-468; type: cell-based, human; settings: 10 μM
[36] = system: SF-539; assay: NCI one-dose screening, CNS cancer SF-539; type: cell-based, human; settings: 10 μM
[37] = system: OVCAR-5; assay: NCI one-dose screening, ovarian cancer OVCAR-5; type: cell-based, human; settings: 10 μM
[38] = system: SF-268; assay: NCI one-dose screening, CNS cancer SF-268; type: cell-based, human; settings: 10 μM
[39] = system: OVCAR-8; assay: NCI one-dose screening, ovarian cancer OVCAR-8; type: cell-based, human; settings: 10 μM
[40] = system: HOP-92; assay: NCI one-dose screening, non-small cell lung cancer HOP-92; type: cell-based, human; settings: 10 μM
[41] = system: NCI-H522; assay: NCI one-dose screening, non-small cell lung cancer NCI-H522; type: cell-based, human; settings: 10 μM
[42] = system: HT29; assay: NCI one-dose screening, colon cancer HT29; type: cell-based, human; settings: 10 μM
[43] = system: SK-MEL-28; assay: NCI one-dose screening, melanoma SK-MEL-28; type: cell-based, human; settings: 10 μM
[44] = system: NCI-H23; assay: NCI one-dose screening, non-small cell lung cancer NCI-H23; type: cell-based, human; settings: 10 μM
[45] = system: IGROV1; assay: NCI one-dose screening, ovarian cancer IGROV1; type: cell-based, human; settings: 10 μM
[46] = system: U251; assay: NCI one-dose screening, CNS cancer U251; type: cell-based, human; settings: 10 μM
[47] = system: DU145; assay: NCI one-dose screening, prostate cancer DU145; type: cell-based, human; settings: 10 μM
[48] = system: SN12C; assay: NCI one-dose screening, renal cancer SN12C; type: cell-based, human; settings: 10 μM
[49] = system: HCT-116; assay: NCI one-dose screening, colon cancer HCT-116; type: cell-based, human; settings: 10 μM
[50] = system: PRMI-8226 cell line; assay: NCI one-dose screening, leukemia PRMI-8226; type: cell-based, human; settings: 10 μM
[51] = system: MOLT-4; assay: NCI one-dose screening, leukemia MOLT-4; type: cell-based, human; settings: 10 μM
[52] = system: HS 578-T; assay: NCI one-dose screening, breast cancer HS 578-T; type: cell-based, human; settings: 10 μM; Breast cancer
[53] = system: ACHN; assay: NCI one-dose screening, renal cancer ACHN; type: cell-based, human; settings: 10 μM
[54] = system: CAKI-1; assay: NCI one-dose screening, renal cancer CAKI-1; type: cell-based, human; settings: 10 μM
[55] = system: MCF7; assay: NCI one-dose screening, breast cancer MCF7; type: cell-based, human; settings: 10 μM
[56] = system: RXF, 393; assay: NCI one-dose screening, renal cancer RXF, 393; type: cell-based, human; settings: 10 μM
[57] = system: TK-10; assay: NCI one-dose screening, renal cancer TK-10; type: cell-based, human; settings: 10 μM
[58] = system: EKVX; assay: NCI one-dose screening, non-small cell lung cancer EKVX; type: cell-based, human; settings: 10 μM

O=C1c2ccccc2C(=O)c2c1cc(Sc1ccccc1Br)c1nsnc21 [C27, 4-(2-bromo-phenylthio)anthra[2,1-c] [1,2,5]thiadiazol oxazole-6,11-dione]
Growth Percent UACC-257 [1]: 4.75%
Growth Percent M14 [2]: 59.45%
Growth Percent T-47D [3]: −33.05%
Growth Percent HOP-62 [4]: 4.88%
Growth Percent COLO 205 [5]: 97.36%
Growth Percent NCI-H460 [6]: 58.24%
Growth Percent Delta ([7]; delta over all cell lines): 109.49%
Growth Percent Mean ([7]; mean over all cell lines): 29.61%
Growth Percent Range ([7]; range over all cell lines): 200.40%
Growth Percent NCI-H226 [8]: 92.07%
Growth Percent K562 [9]: 29.66%
Growth Percent SR [10]: 2.94%
Growth Percent HCC-2998 [11]: 78.44%
Growth Percent SNB-19 [12]: 71.38%
IC50 [13]: 5.76 µM
Growth Percent SK-OV-3 [14]: 66.68%
Growth Percent SF-295 [15]: 100.07%
Growth Percent HCT-15 [16]: 39.74%
Growth Percent MDA-MB-231/ATCC [17]: 16.85%
Growth Percent UACC-62 [18]: 39.58%
Growth Percent A549/ATCC [19]: 95.37%
Growth Percent A498 [20]: 24.25%
Growth Percent MDA-MB-435 [21]: −72.95%
Growth Percent LOX IMVI [22]: −15.34%
Growth Percent SK-MEL-5 [23]: 46.26%
Growth Percent NCI/ADR-RES [24]: −29.94%
Growth Percent MALME-3M [25]: 35.27%
Growth Percent SK-MEL-2 [26]: 35.02%
Growth Percent PC-3 [27]: 4.23%
Growth Percent UO-31 [28]: 56.15%
Growth Percent BT-549 [29]: 52.19%
Growth Percent KM12 [30]: 57.85%
Growth Percent HL-60(TB) [31]: −43.96%
Growth Percent 786-0 [32]: −6.19%
Growth Percent OVCAR-3 [33]: −65.85%
Growth Percent SNB-75 [34]: 47.20%
Growth Percent MDA-MB-468 [35]: −79.88%
Growth Percent SF-539 [36]: −5.66%
Growth Percent OVCAR-5 [37]: 120.52%
Growth Percent SF-268 [38]: −5.11%
Growth Percent OVCAR-8 [39]: 2.47%
Growth Percent HOP-92 [40]: 37.57%
Growth Percent NCI-H522 [41]: 30.77%
Growth Percent HT29 [42]: 96.46%
Growth Percent SK-MEL-28 [43]: 64.65%
Growth Percent NCI-H23 [44]: 18.02%
Growth Percent IGROV1 [45]: 27.94%
Growth Percent U251 [46]: 11.49%
Growth Percent DU145 [47]: 50.57%
Growth Percent SN12C [48]: 22.56%
Growth Percent HCT-116 [49]: 16.62%
Growth Percent RPMI-8226 [50]: 9.40%
Growth Percent MOLT-4 [51]: 29.67%
Growth Percent HS 578T [52]: 54.25%
Growth Percent ACHN [53]: 25.50%
Growth Percent CAKI-1 [54]: 29.67%
Growth Percent MCF7 [55]: −6.39%
Growth Percent RXF 393 [56]: −8.53%
Growth Percent TK-10 [57]: 76.52%
Growth Percent EKVX [58]: 77.74%
